Measured values: PMC10610188, “Structure–Activity Relationship Studies of Chalcones and Diarylpentanoids with Antitumor Activity: Potency and Selectivity Optimization” (Pharmaceuticals, 2023)
Like-named read-outs stand apart in the source and are kept apart here.

Experiments:
HCT116 p53^+/+ cells [1] = details: SRB assay, cited from earlier work
HFF-1 cells = assay: SRB growth inhibition assay in normal fibroblasts HFF-1; type: cell-based, human; details: for SI2: Selective index 2: GI50 of HFF-1/GI50 of HCT116 p53^+/+; for GI50: Homo sapiens, HFF-1, SRB assay, 48 h of treatment
Procedure: (§1) To study the in vitro antitumor potential of chalcone CM-M345 (1) and diarylpentanoid BP-C4 (2) analogues, the sulforhodamine B (SRB) assay was used to evaluate the antiproliferative activity in human colorectal HCT116 cancer cells. To assess their cytotoxicity toward normal cells, the antiproliferative effect of these compounds was also tested in human fibroblasts HFF-1 cells. In order to confirm if inhibition of proliferation was associated with p53 activation in HCT116 p53^+/+ cells, all compounds were also tested in HCT116 cells in which p53 was knocked out (HCT116 p53^−/−) and the selective index was calculated and compared to the compounds CM-M345 (1) and BP-C4 (2), for which p53-dependent antiproliferative activity was previously reported by our research group (Table 1).
(§2) The colorectal adenocarcinoma HCT116 cells (HCT116 p53^+/+) and its p53-null isogenic derivative (HCT116 p53^−/−) were given by Prof. Vogelstein (The Johns Hopkins Kimmel Cancer Center, Baltimore, USA); the normal human fibroblasts HFF-1 cell lines were from ATCC (Rockville, MD, USA). Human cells were cultured in RPMI-1640 with UltraGlutamine (Lonza, VWR, Portugal) with 10% FBS (Gibco, Alfagene, Portugal) at 37 °C with 5% CO2. The SH-SY5Y cells were cultured in DMEM/F-12 (Lonza) and 10% FBS and 2mM L-glutamine (Gibco). The cells were incubated at 37 °C in a humidified atmosphere of 5% CO2. Mycoplasma was routinely checked using the MycoAlert™ PLUS kit (Lonza). […]

HCT116 p53^−/− cells [2] = details: SRB assay; ref Pereira et al. [23]; cited from earlier work
HCT116 p53^−/− cells [3] = assay: SRB growth inhibition assay in HCT116 p53-/- cells; type: cell-based, human; details: for SI1: Selective index 1: GI50 of HCT116 p53^−/−/GI50 of HCT116 p53^+/+; for GI50: Homo sapiens, HCT-116, SRB assay, 48 h of treatment
Procedure: as §1, §2

p53–MDM2 interaction = target: T1, p53–MDM2 interaction (Homo sapiens, UniProt Q00987); assay: Yeast-based p53-MDM2 interaction screening assay; type: cell-based; details: 10 μM
T1 construct: expressed in transfected cells; host or cells: Saccharomyces cerevisiae strain CG379
From the text: The possible activation of p53 by inhibiting its interaction with MDM2 was investigated using the yeast-based screening assay previously developed by our group. In this assay, compounds that inhibit p53–MDM2 interaction will re-establish the p53-induced growth-inhibitory effect, which was abolished by MDM2 [43].
In the yeast targeted screening assay, Saccharomyces cerevisiae (strain CG379) expressing human wt p53 alone and combined with human MDM2 were used as described. For the expression of human proteins (routinely grown in minimal selective medium), the cells were diluted to 0.05 OD600 in the selective induction medium with 2% (w/w) galactose, 1% (w/w) raffinose, 0.7% (w/w) yeast nitrogen base without amino acids from Difco (Quilaban, Sintra, Portugal), and all the amino acids necessary for yeast growth ([…]) except leucine and tryptophan. The yeast cells were incubated at 30 °C under continuous orbital shaking (200 rpm) with […] compounds or 0.1% DMSO only for over 42 h. Yeast growth was analyzed by counting the number of colony-forming units (CFUs) after 2 days of incubation at 30 °C on Sabouraud Dextrose Agar from Liofilchem (Frilabo, Porto, Portugal).

HCT116 p53^+/+ cells [4] = assay: SRB growth inhibition assay in HCT116 p53+/+ cells; type: cell-based, human; details: for GI50: SRB assay, 48 h of treatment
Procedure: as §1, §2

p53 = assay: Western blot, p53 protein levels; type: cell-based, human; details: 5 µM, 48 h, HCT116 p53^+/+
Procedure: (§3) For Western blotting, 1.5 × 10^5 cells (per well) of HCT116 p53^+/+ cells were seeded in six-well plates and allowed to adhere for 24 h, followed by treatment with 5 μM 17 for 48 h. Protein extracts obtained from the human cancer cells were quantified using the Pierce™ BCA Protein Assay Kit (Thermo Scientific, Taper, Sintra, Portugal), according to the manufacturer’s instructions. The proteins were then run in SDS-PAGE and transferred to a Whatman nitrocellulose membrane from Protan (VWR, Carnaxide, Portugal). Proteins were detected using the primary antibodies anti-p53 (Santa Cruz Biotechnology, Dallas, TX, USA, SC-126, 1:5000), anti-BCL-2 (Santa Cruz Biotechnology, SC-7382, 1:200), anti-PARP (Cell Signaling, #9542, 1:1000), and anti-GAPDH (Santa Cruz Biotechnology, SC-32233, 1:10,000), followed by HRP-conjugated secondary antibodies anti-mouse (Santa Cruz Biotechnology, SC-2005, 1:2500) and anti-rabbit (Santa Cruz Biotechnology, SC-2006, 1:2500). GAPDH was used as a loading control. The signal was detected with an ECL Amersham kit from GE Healthcare (VWR) and the ChemiDoc™ MP Imaging System (Bio-Rad, Amadora, Portugal).

HCT116 p53^+/+ cells [5] = assay: Annexin V-FITC apoptosis analysis by flow cytometry; type: cell-based, human; details: 5 µM, 48 h
Procedure: The 1.5 × 10^5 HCT116 p53^+/+ cells/well were seeded in 6-well plates and then treated with 5 µM 17 for 48 h. For the apoptosis analysis, an Annexin V-FITC Apoptosis Detection Kit I (BD Biosciences, Franklin Lakes, NJ, USA) was used following the manufacturer’s instructions. An AccuriTM C6 flow cytometer and the BD Accuri C6 software were used for data acquisition.

Bcl-2 = assay: Western blot, Bcl-2 protein levels; type: cell-based, human; details: 5 µM, 48 h, HCT116 p53^+/+
Procedure: as §3

PARP = assay: Western blot, PARP cleavage; type: cell-based, human; details: 5 µM, 48 h, HCT116 p53^+/+
Procedure: as §3

T1 sequence (Q00987 whole entry): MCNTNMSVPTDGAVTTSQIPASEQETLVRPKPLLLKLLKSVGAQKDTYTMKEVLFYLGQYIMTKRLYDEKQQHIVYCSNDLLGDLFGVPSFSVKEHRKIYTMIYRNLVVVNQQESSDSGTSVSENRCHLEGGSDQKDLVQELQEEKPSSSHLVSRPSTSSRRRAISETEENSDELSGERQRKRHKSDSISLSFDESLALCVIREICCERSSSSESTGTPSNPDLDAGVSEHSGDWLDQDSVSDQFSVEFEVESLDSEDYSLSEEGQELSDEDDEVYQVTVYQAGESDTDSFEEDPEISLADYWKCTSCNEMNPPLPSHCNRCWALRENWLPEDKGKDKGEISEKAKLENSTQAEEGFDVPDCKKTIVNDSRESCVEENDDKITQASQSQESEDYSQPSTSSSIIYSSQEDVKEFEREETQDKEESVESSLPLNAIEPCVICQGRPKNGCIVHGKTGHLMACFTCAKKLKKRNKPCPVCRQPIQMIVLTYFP

Row | SMILES | SI2: Selective index 2 (HFF-1 cells) | GI50 (HFF-1 cells) | SI1: Selective index 1 (HCT116 p53^−/− cells [3]) | GI50 (HCT116 p53^−/− cells [3]) | melting point | GI50 (HCT116 p53^+/+ cells [4]; Homo sapiens, HCT-116, 48 h) | other results
1 | COc1cc(/C=C2\COC/C(=C\c3cc(OC)c(OC)c(OC)c3)C2=O)cc(OC)c1OC [BP-M345 (1), reference compound] |  |  |  |  |  |  | GI50 (HCT116 p53^+/+ cells [1]; ref Moreira et al. [21]): 0.17 µM
2 | CCCc1c(OC)ccc(C(=O)/C=C/c2cc(OC)c(OC)c(OC)c2)c1O [CM-M345 (1), (E)-1-(2-hydroxy-4-methoxy-3-propylphenyl)-3-(3,4,5-trimethoxyphenyl)prop-2-en-1-one] | 2.96 | 7.7 ± 0.8 µM |  |  |  |  | GI50 (HCT116 p53^+/+ cells [1]; ref Pereira et al. [23]): 2.6 ± 0.2 µM; GI50 (HCT116 p53^−/− cells [2]): 3.4 ± 0.1 µM
3 | O=C1/C(=C/c2ccc(Cl)cc2)CSc2ccccc21 [Compound 16] | 5.25 | 3.62 ± 0.99 µM | 11.5 | 7.95 ± 0.85 µM | 139 to 141 °C | 0.69 ± 0.07 µM | selectivity for p53 compared to BP-C4 (2) (HCT116 p53^−/− cells [3]; HCT116 p53^+/+ over p53^−/−): seven-fold increased; effect on growth of control yeast (vectors) or yeast expressing p53 only (p53–MDM2 interaction): without interfering with the growth; inhibition of the p53–MDM2 interaction in yeast co-expressing p53 and MDM2 (p53–MDM2 interaction): behaved as a potential inhibitor of the p53-MDM2 interaction; antiproliferative activity compared to BP-C4 (2) (HCT116 p53^+/+ cells [4]; HCT116 p53^+/+): nine-fold higher
4 | O=C(/C=C/c1ccc(Cl)cc1)/C=C/c1ccc(Cl)cc1 [Compound 17] | 12.43 | 27.1 ± 1.25 µM | 1.63 | 3.55 ± 0.05 µM |  | 2.8 µM | p53 protein levels (Western blot) (p53): did not interfere with the p53 protein levels; apoptosis (annexin-positive cells) (HCT116 p53^+/+ cells [5]): induced apoptosis; GI50 value in HFF-1 cells relative to HCT116 p53^+/+ cells (fold higher) (HFF-1 cells): 12 fold; Bcl-2 protein levels (Western blot) (Bcl-2): depletion of the protein levels of the anti-apoptotic protein Bcl-2; GI50 (HCT116 p53^+/+ cells [4]): 2.18 ± 0.59 µM; PARP cleavage (Western blot) (PARP): PARP cleavage
5 | CCCc1c(OC)ccc2c(=O)cc(-c3cc(OC)c(OC)c(OC)c3)oc12 [Compound 27, 7-methoxy-8-propyl-2-(3,4,5-trimethoxyphenyl)-4H-chromen-4-one] |  | > 30 µM |  | > 30 µM | 153 to 155 °C | > 30 µM | 
6 | CCCc1c(OC)ccc(C(O)/C=C/c2cc(OC)c(OC)c(OC)c2)c1O (stereo not shown) [Compound 28, (E)-6-(1-hydroxy-3-(3,4,5-trimethoxyphenyl)allyl)-3-methoxy-2-propylphenol] | 1.13 | 17 ± 4.4 µM | 0.80 | 12 ± 5 µM | 219 to 222 °C | 15 ± 1.73 µM | 
7 | OC1/C(=C/c2ccc(Cl)cc2)COC/C1=C\c1ccc(Cl)cc1 (stereo not shown) [Compound 30, 3,5-bis((E)-4-chlorobenzylidene)tetrahydro-2H-pyran-4-ol] |  | > 30 µM |  | > 30 µM | 219 to 222 °C | > 30 µM | 
8 | O=C1C(Cc2ccc(Cl)cc2)COCC1Cc1ccc(Cl)cc1 (stereo not shown) [Compound 31, 3,5-bis(4-chlorobenzyl)tetrahydro-4H-pyran-4-one] |  | > 30 µM |  | > 30 µM | 145 to 146 °C | > 30 µM | 
9 | CCCc1c(OC)ccc(C(=O)/C=C/c2ccc(Cl)cc2)c1O [Compound 32] | 1.17 | 11.1 ± 0.12 µM | 1 | 9.5 ± 0.1 µM | 109 to 112 °C | 9.5 ± 0.5 µM | 
10 | CCCc1c(OC)ccc(C(=O)/C=C/c2ccc(F)cc2)c1O [Compound 33, (E)-3-(4-fluorophenyl)-1-(2-hydroxy-4-methoxy-3-propylphenyl)prop-2-en-1-one] | 0.89 | 8.23 ± 0.08 µM | 0.77 | 7.2 ± 0.32 µM | 115 to 117 °C | 9.25 ± 0.75 µM | 
11 | CCCc1c(OC)ccc(C(=O)/C=C/c2ccc(Br)cc2)c1O [Compound 34, (E)-3-(4-bromophenyl)-1-(2-hydroxy-4-methoxy-3-propylphenyl)prop-2-en-1-one] | 0.80 | 14.9 ± 0.232 µM | 0.62 | 11.5 ± 0.145 µM | 115 to 116 °C | 18.5 ± 0.35 µM | 
12 | CCCc1c(OC)ccc(C(=O)/C=C/c2ccc(N3CCOCC3)cc2)c1O [Compound 36, (E)-1-(2-hydroxy-4-methoxy-3-propylphenyl)-3-(4-morpholinophenyl)prop-2-en-1-one] | 3.08 | 15.7 ± 2.8 µM |  | 14.3 ± 1.1 µM | 129 to 131 °C | 5.1 to 10.7 µM | inhibition of the p53–MDM2 interaction in yeast co-expressing p53 and MDM2 (p53–MDM2 interaction): seems not to be related to the inhibition of p53–MDM2 interaction; GI50 (HCT116 p53^+/+ cells [4]): 5.1 ± 0.32 µM
13 | CC(C)=CCOc1ccc(/C=C2\COC/C(=C\c3ccc(OCC=C(C)C)cc3)C2=O)cc1 [Compound 40, 3,5-bis((E)-4-((3-methylbut-2-en-1-yl)oxy)benzylidene)tetrahydro-4H-pyran-4-one] | 1.48 | 14.1 ± 0.08 µM | 0.61 | 5.8 ± 0.21 µM | 145 to 147 °C | 9.51 µM | GI50 (HCT116 p53^+/+ cells [4]): 9.53 ± 0.25 µM
